Test results as given in patent US8357703B2, “Pyridines” (Hoffmann-La Roche Inc., priority 2009, dated 2013).

Molecular target: T1, human GABA A α5β3γ2 receptor (Homo sapiens, UniProt P18507+P31644)
T1 construct: expressed in transfected cells; host or cells: HEK293 (transiently transfected), membranes
Assay: [3H]flumazenil competition binding to HEK293 cells expressing human GABA A receptors
Conditions: competition for [3H]flumazenil (0.5 nM for α5); HEK293 cells expressing human (transiently transfected) receptors; means of two determinations; read-out: hKi GABA Aα5
Experimental: The affinity of compounds at GABA A receptor subtypes was measured by competition for [^3H]flumazenil (85 Ci/mmol; Roche) binding to HEK293 cells expressing rat (stably transfected) or human (transiently transfected) receptors of composition α1β3γ2, α2β3γ2, α3β3γ2 and α5β3γ2.
Cell pellets were suspended in Krebs-tris buffer (4.8 mM KCl, 1.2 mM CaCl2, 1.2 mM MgCl2, 120 mM NaCl, 15 mM Tris; pH 7.5; binding assay buffer), homogenized by polytron for ca. 20 sec on ice and centrifuged for 60 min at 4° C. (50000 g; Sorvall, rotor: SM24=20000 rpm). The cell pellets were resuspended in Krebs-tris buffer and homogenized by polytron for ca. 15 sec on ice. Protein was measured (Bradford method, Bio-Rad) and aliquots of 1 mL were prepared and stored at −80° C.
Radioligand binding assays were carried out in a volume of […] (96-well plates) which contained […] of cell membranes, [^3H]flumazenil at a concentration of 1 nM for α1, α2, α3 subunits and 0.5 nM for α5 subunits and the test compound in the range of […]. Nonspecific binding was defined by 10^−5 M diazepam and typically represented less than 5% of the total binding. Assays were incubated to equilibrium for 1 hour at 4° C. and harvested onto GF/C uni-filters (Packard) by filtration using a Packard harvester and washing with ice-cold wash buffer (50 mM Tris; pH 7.5). After drying, filter-retained radioactivity was detected by liquid scintillation counting. Ki values were calculated using Excel-Fit (Microsoft) and are the means of two determinations.
Representative test results, obtained by the above described assay measuring binding affinity to HEK293 cells expressing human (h) receptors, are shown in table 1 below.

Row | Ki | SMILES
1 | 34.5 nM | CCCCc1noc(C)c1COc1ccc(C(=O)N2CCC2)cn1 [Example 22, Azetidin-1-yl-[6-((3-butyl-5-methyl-isoxazol-4-yl)methoxy)-pyridin-3-yl]-methanone]
2 | 4 nM | Cc1onc(N2CCCC2)c1COc1ccc(C(=O)NC(C)C)cn1 [Example 40, N-Isopropyl-6-((5-methyl-3-pyrrolidin-1-yl-isoxazol-4-yl)methoxy)-nicotinamide]
3 | 67.6 nM | CCCCc1noc(C)c1CNc1ccc(C(=O)NC2CCOCC2)cn1 [Example 44, 6-[((3-Butyl-5-methyl-isoxazol-4-yl)methyl)-amino]-N-(tetrahydro-pyran-4-yl)-nicotinamide]
4 | 70.9 nM | CCCC(C)c1noc(C)c1COc1ccc(C(=O)NC(C)C)cn1 (centres unmarked) [Example 29, N-Isopropyl-6-[(5-methyl-3-(1-methyl-butyl)-isoxazol-4-yl)methoxyl]-nicotinamide]
5 | 4.1 nM | CCCCc1noc(C)c1COc1ccc(C(=O)NC(C)C)cn1 [Example 5, 6-((3-Butyl-5-methyl-isoxazol-4-yl)methoxy)-N-isopropyl-nicotinamide]
6 | 3.7 nM | Cc1onc(C2CCCCC2)c1COc1ccc(C(=O)NC(C)CO)cn1 (centres unmarked) [Example 36, 6-((3-Cyclohexyl-5-methyl-isoxazol-4-yl)methoxy)-N-(2-hydroxy-1-methyl-ethyl)-nicotinamide]
7 | 4.3 nM | Cc1onc(C2CCCCC2)c1COc1ccc(C(=O)NC(C)C)cn1 [Example 31, 6-((3-Cyclohexyl-5-methyl-isoxazol-4-yl)methoxy)-N-isopropyl-nicotinamide]
8 | 21.9 nM | Cc1onc(C2CCOCC2)c1COc1ccc(C(=O)NC(C)C)cn1 [Example 37, N-Isopropyl-6-[(5-methyl-3-(tetrahydro-pyran-4-yl)-isoxazol-4-yl)methoxy]-nicotinamide]
9 | 9.2 nM | CCCCc1noc(C)c1COc1ccc(C(=O)NCC(C)(C)O)cn1 [Example 13, 6-((3-Butyl-5-methyl-isoxazol-4-yl)methoxy)-N-(2-hydroxy-2-methyl-propyl)-nicotinamide]
10 | 77 nM | CCCCc1noc(C)c1CNc1ccc(C(=O)NC(C)CO)cn1 (centres unmarked) [Example 43, 6-[((3-Butyl-5-methyl-isoxazol-4-yl)methyl)-amino]-N-(2-hydroxy-1-methyl-ethyl)-nicotinamide]
11 | 50.8 nM | CCCc1noc(C)c1COc1ccc(C(=O)NC2CCOCC2)cn1 [Example 2, 6-((5-Methyl-3-propyl-isoxazol-4-yl)methoxy)-N-(tetrahydro-pyran-4-yl)-nicotinamide]
12 | 44.9 nM | CCCCc1nocc1COc1ccc(C(=O)NCC(F)(F)F)cn1 [Example 26, 6-((3-Butyl-isoxazol-4-yl)methoxy)-N-(2,2,2-trifluoro-ethyl)-nicotinamide]
13 | 4.7 nM | Cc1onc(C2CCCCC2)c1COc1ccc(C(=O)NC2CC2)cn1 [Example 32, 6-((3-Cyclohexyl-5-methyl-isoxazol-4-yl)methoxy)-N-cyclopropyl-nicotinamide]
14 | 37.6 nM | Cc1onc(C2CCCC2)c1COc1ccc(C(=O)NC(C)C)cn1 [Example 30, 6-((3-Cyclopentyl-5-methyl-isoxazol-4-yl)methoxy)-N-isopropyl-nicotinamide]
15 | 36.1 nM | CCCCc1nocc1COc1ccc(C(=O)N[C@@H](C)CO)cn1 [Example 28, 6-((3-Butyl-isoxazol-4-yl)methoxy)-N—((S)-2-hydroxy-1-methyl-ethyl)-nicotinamide]
16 | 7.3 nM | CCCCc1noc(C)c1COc1ccc(C(=O)NC(C)CO)cn1 (single isomer, unassigned; (+)) [Example 11, (+)-6-((3-Butyl-5-methyl-isoxazol-4-yl)methoxy)-N-(2-hydroxy-1-methyl-ethyl)-nicotinamide]
17 | 5.8 nM | Cc1onc(C2CCCCC2)c1COc1ccc(C(=O)NCCO)cn1 [Example 34, 6-((3-Cyclohexyl-5-methyl-isoxazol-4-yl)methoxy)-N-(2-hydroxy-ethyl)-nicotinamide]
